From PubChem BioAssay AID504759 (National Center for Advancing Translational Sciences (NCATS), 2011)

Tested on: Caco-2 monolayer bidirectional permeability, LC-MS/MS
Experiment: Inhibitors of Cruzain: Efflux Ratio Profiling
Conditions: stronger effect = lower value
Description: Chagas Disease is a neglected tropical disease that affects over 16 million people in Latin America. The cysteine protease cruzain is essential for the survival Trypanosoma cruzi, the parasitic agent responsible for Chagas disease. Potential intervention for T. cruzi includes the inhibition of cruzain. This bioassay will summarize the ongoing development of small molecule cruzain inhbitiors. Currently, a screen of ~200k compounds and through extensive follow-up work a probe was identified. To further characterize the probe, it was tested in in vitro ADME assays. This bioassays provides profiling data on Caco-2 cell permeability of leads compounds developed for the HPGD project. This in vitro model is often predictive of in vivo efflux of the compound by measuring the ratio of transport in and out the plasma membrane of the Caco2-cell line. NIH Chemical Genomics Center [NCGC] NIH Molecular Libraries Probe Production Centers Network [MLPCN] MLSCN Grant: DA024891-01 PI Name: Dr. Brian Shoichet; University of California, San Francisco
1. Buffer Preparation: Prepare 1M HEPES: add 23.83g HEPES to 100ml of 0.85% NaCl Prepare HBSS+ buffer: add 12.8ml of 1M HEPES in 0.85% NaCl to 500ml HBSS buffer. 2. […] The T0, LY and T90, LY plates are read by FlexStation 3 at excitation of 485 nm and emission of 535 nm to determine LY permeability. […]

efflux ratio: 1.1
SMILES: Cc1ccc(OCCn2c(CCNC(=O)C3CCCCC3)nc3ccccc32)cc1
